Reference: US8551721B2, “Bioluminescent detection of cyanohydroxy benzothiazole compounds” (Promega Corporation, priority 2008, dated 2013)
One block for each compound: values may come before it.

Experiments:
UGT isozymes = conditions: cited from earlier work; for Isozymes Modulated: isozymes currently reported in the literature to be modulated by the compound
GST A1-1 = target: T1, GST A1-1 (Homo sapiens, UniProt P08263); assay: Utilization of benzothiazole by GST A1-1; format: biochemical; conditions: 55 minutes at room temperature; for light produced with GST A1-1 minus no enzyme, concentrated substrate: concentrated substrate solution (approximately 1 mg/mL diluted 1:100), glutathione; for light produced with GST A1-1 minus no enzyme, diluted substrate: substrate solution diluted 1:3.1, glutathione
T1 sequence (P08263 1-222): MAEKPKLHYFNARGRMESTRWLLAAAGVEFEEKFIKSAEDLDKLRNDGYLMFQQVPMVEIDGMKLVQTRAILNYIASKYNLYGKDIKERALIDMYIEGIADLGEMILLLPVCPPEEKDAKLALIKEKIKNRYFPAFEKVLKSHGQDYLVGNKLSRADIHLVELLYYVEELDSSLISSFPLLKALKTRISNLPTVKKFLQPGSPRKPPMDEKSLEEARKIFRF
Procedure: (§1) A small amount of compound 934-37 was dissolved in DMSO to produce a solution approximately 1 mg/mL. This solution was diluted 1:100 (v/v) into 50 mM HEPES buffer pH 7.5 to produce a substrate solution. Twenty μL of this solution was placed in 10 wells of a 96 well white luminometer plate (Promega part Z3291), then the solution was diluted 1:3.1 and 20 μL of the dilution was placed into another 10 wells in the luminometer plate.
(§2) D-Cysteine, 4 mg (Sigma Chemical Corp.; C8005-1 g, 017K1034) was dissolved into 1 mL of 50 mM HEPES buffer pH 7.5, then 4 μL added to 4 of the wells containing the substrate solution and 4 of the wells with diluted substrate solution to convert compound 934-37 to the corresponding luciferin derivative. The structures of these compounds are shown below.
(§3) A sample of GST A1-1 (1.2 mg/mL) and 100 μL of 100 mM glutathione in water was diluted into 5 mL of 50 mM HEPES pH 7.5, then 25 μL added to: two of the wells with unconverted, concentrated compound 934-37; 2 wells with concentrated and converted compound 934-37; and two of the wells with unconverted, diluted compound 934-37 and 2 of the wells with converted, diluted compound 934-37.
(§4) Glutathione (100 μL of 100 mM glutathione) had been diluted to 5 mL with 50 mM HEPES buffer pH 7.5, then 25 μL added to the remaining wells of converted and unconverted compound 934-37 in concentrated and diluted solution.
(§5) After 55 minutes at room temperature, 4 μL of the D-cysteine solution above was added to all wells that had not received cysteine before, then 50 μL of P450 Glo Luciferin Detection Reagent (made by dissolving a vial of Promega Luciferin Detection Reagent (Promega Part #V859B) with a vial of Promega P450-Glo Buffer (Promega Part #V865B). The plate was then placed into a Glo Max luminometer (Promega Corp.) and the light read after 15 minutes of incubation. The values obtained were averaged and the average value of the light produced from the wells given no enzyme were then subtracted from the average of the light produced with enzyme.

GST M1-1 = target: T2, GST M1-1 (Homo sapiens, UniProt P09488); assay: Utilization of benzothiazole by GST M1-1; format: biochemical; conditions: 55 minutes at room temperature; for light produced with GST M1-1 minus no enzyme, concentrated substrate: concentrated substrate solution (approximately 1 mg/mL diluted 1:100), glutathione; for light produced with GST M1-1 minus no enzyme, diluted substrate: substrate solution diluted 1:3.1, glutathione
T2 sequence (P09488 1-218): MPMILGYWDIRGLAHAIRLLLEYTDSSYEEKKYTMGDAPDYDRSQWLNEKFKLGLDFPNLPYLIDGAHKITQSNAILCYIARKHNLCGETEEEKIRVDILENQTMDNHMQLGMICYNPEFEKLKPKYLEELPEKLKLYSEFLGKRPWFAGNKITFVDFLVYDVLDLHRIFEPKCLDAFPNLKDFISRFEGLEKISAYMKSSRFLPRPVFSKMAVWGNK
Procedure: as §1, §2
as §3, with “M1-1” for “A1-1”, “glutathione” for “glutathione in water”
as §4, §5

UGT 1A4 = target: T3, UGT 1A4 (Homo sapiens, UniProt P22310); assay: UGT activity: utilization of substrate by recombinant UGT 1A4 Supersomes; format: biochemical; conditions: 2 hour incubation at 37° C., plus vs minus UDPGA
T3 construct: purchased BD Gentest; host or cells: insect cells (microsomes)
T3 sequence (P22310 29-534): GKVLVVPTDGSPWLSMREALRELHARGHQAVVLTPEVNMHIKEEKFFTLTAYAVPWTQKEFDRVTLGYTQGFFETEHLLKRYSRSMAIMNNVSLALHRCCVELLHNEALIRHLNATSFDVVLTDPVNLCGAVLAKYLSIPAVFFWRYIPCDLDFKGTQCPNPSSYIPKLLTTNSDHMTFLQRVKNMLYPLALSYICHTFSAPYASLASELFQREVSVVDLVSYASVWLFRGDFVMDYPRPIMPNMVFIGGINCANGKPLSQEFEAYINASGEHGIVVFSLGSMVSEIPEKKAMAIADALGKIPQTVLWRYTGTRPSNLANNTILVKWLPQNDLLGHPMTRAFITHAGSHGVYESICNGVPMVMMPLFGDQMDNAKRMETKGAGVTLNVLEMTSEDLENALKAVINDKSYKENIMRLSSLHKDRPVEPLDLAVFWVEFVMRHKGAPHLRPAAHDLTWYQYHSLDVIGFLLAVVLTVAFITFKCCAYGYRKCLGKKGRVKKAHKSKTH
Procedure: The invention includes a method of determining activity of the uridine 5′-diphospho-glucuronosyltransferase (UDP-glucuronosyltransferase, or UGT) family enzymes in vitro. Briefly, UGT enzymes from overexpressed insect microsomes (Supersomes™, BD Gentest™) or animal tissue microsomes (Xenotech, BD Gentest™) were incubated with a cyanobenzothiazole substrate of the invention and the cofactor UDP-glucuronic acid (UDPGA) at 37° C. in buffer at physiological pH containing MgCl2 and alamethicin (typically, 50 mM TES, pH 7.5, 8 mM MgCl2, 4 mM UDPGA (Sigma) and 25 μg/mL alamethicin (Sigma)). Following the UGT enzyme reaction, an equal volume of P450-Glo Luciferin Detection Reagent (Promega) containing 15-30 mM D-cysteine-HCl.H2O (Sigma) was added and the plate was mixed and incubated at room temperature, typically for 20-30 minutes. P450-Glo Luciferin Detection Reagent can be prepared by dissolving a vial of Promega Luciferin Detection Reagent (Promega Part #V859B) with a vial of Promega P450-Glo Buffer (Promega Part #V865B).
(§6) During this incubation, the cysteine reacts with the cyanobenzathiozole substrate to yield a D-luciferin derivative. […] Therefore, activity of the UGT enzyme can be measured by analyzing the difference (lower or no output) in relative light units (RLU) of a sample in which glucuronidation occurs compared to a sample that was run under the same conditions with no added UDPGA cofactor.
In this example, a series of 12 recombinant UGTs expressed in insect microsomes (Supersomes™, BD Gentest™), as well as the control microsomes not expressing the UGT enzyme, were incubated with compound 3138, compound 3478, or compound 3165 as substrates, with or without the UDPGA co-factor. […]
Reactions were assembled in a white 96-well plate. […] After the incubation was completed, the plate was read on a Veritas™ luminometer (Turner BioSystems, Inc.; Sunnyvale, Calif.). […]

[1] = tested on: endogenously expressed UGT isozymes in mammalian microsomes; assay: Utilization of compounds by mammalian microsomes; format: biochemical; conditions: 0.2 mg/mL microsomes, 50 μM compound, reactions run for 2 hours
Procedure: The invention includes a method of determining activity of the uridine 5′-diphospho-glucuronosyltransferase (UDP-glucuronosyltransferase, or UGT) family enzymes in vitro. […] Following the UGT enzyme reaction, an equal volume of P450-Glo Luciferin Detection Reagent (Promega) containing 15-30 mM D-cysteine-HCl.H2O (Sigma) was added and the plate was mixed and incubated at room temperature, typically for 20-30 minutes. P450-Glo Luciferin Detection Reagent can be prepared by dissolving a vial of Promega Luciferin Detection Reagent (Promega Part #V859B) with a vial of Promega P450-Glo Buffer (Promega Part #V865B).
as §6
Tissue microsomes were obtained from Xenotech LLC or BD Gentest.

human liver microsomes = assay: Utilization of compound 3165 by human liver, renal and intestinal microsomes; format: biochemical; conditions: 2 hours at 37° C., 0.2 mg/mL microsomes, 50 μM compound
Procedure: (§7) The invention includes a method of determining activity of the uridine 5′-diphospho-glucuronosyltransferase (UDP-glucuronosyltransferase, or UGT) family enzymes in vitro. Briefly, UGT enzymes from overexpressed insect microsomes (Supersomes™, BD Gentest™) or animal tissue microsomes (Xenotech, BD Gentest™) were incubated with a cyanobenzothiazole substrate of the invention and the cofactor UDP-glucuronic acid (UDPGA) at 37° C. in buffer at physiological pH containing MgCl2 and alamethicin (typically, 50 mM TES, pH 7.5, 8 mM MgCl2, 4 mM UDPGA (Sigma) and 25 μg/mL alamethicin (Sigma)). […]
as §6
(§8) The ability of endogenously expressed UGT isozymes to utilize compounds 3138 and 3165 as substrates was determined in a similar manner to the assays with recombinant microsomes (Example 1). […]

rat liver microsomes = assay: Utilization of compound 3165 by rat liver microsomes; format: biochemical; conditions: 2 hours at 37° C., 0.2 mg/mL microsomes, 50 μM compound
Procedure: as §7, §6, §8

mouse liver microsomes = assay: Utilization of compound 3165 by mouse liver microsomes; format: biochemical; conditions: 2 hours at 37° C., 0.2 mg/mL microsomes, 50 μM compound
Procedure: as §7, §6, §8

SMILES: O=c1cc(C(F)(F)F)c2ccc(O)cc2o1 [7-hydroxy-4-trifluoromethyl coumarin]
Isozymes Modulated (UGT isozymes): Substrate for 1A1, 1A3, 1A6, 1A9, 2B7

SMILES: C=C[C@H]1C[N@@]2CC[C@H]1C[C@@H]2[C@@H](O)c1ccnc2ccc(OC)cc12 [Quinidine]
Isozymes Modulated (UGT isozymes): 2B7 and 2B15, others to a lesser extent

SMILES: CC(C)c1nc(CN(C)C(=O)N[C@H](C(=O)N[C@@H](Cc2ccccc2)C[C@H](O)[C@H](Cc2ccccc2)NC(=O)OCc2cncs2)C(C)C)cs1 [Ritonavir]
inhibition of UGT isozymes as reported in the literature (UGT isozymes; literature report): inhibits UGT 1A 1 and 1A4, but has little effect on UGT 2B7

SMILES: O=c1ccc2ccc(O)cc2o1 [Umbelliferne]
Isozymes Modulated (UGT isozymes): Substrate of most isozymes

light produced with GST A1-1 minus no enzyme, concentrated substrate (GST A1-1): 164,400 RLU
light produced with GST A1-1 minus no enzyme, diluted substrate (GST A1-1): 195,021 RLU
light produced with GST M1-1 minus no enzyme, concentrated substrate (GST M1-1): 41,212 RLU
light produced with GST M1-1 minus no enzyme, diluted substrate (GST M1-1): 30,428 RLU
SMILES: Cc1cc(S(=O)(=O)Oc2ccc3nc(C#N)sc3c2)ccc1[N+](=O)[O-] [compound 934-37]

SMILES: Cc1cc(NCc2cccc(N)c2)cc2sc(C#N)nc12 [compound 3165]
utilization by UGT 1A4 (in words) (UGT 1A4): only utilized by UGT 1A4
rate of utilization of compound 3165 by mammalian microsomes (compared with compound 3138) [1]: much slower
utilization of compound 3165: human liver vs human renal and intestinal microsomes (human liver microsomes): much higher for human liver microsomes than either human renal or human intestinal microsomes
utilization of compound 3165 by rat liver microsomes (rat liver microsomes): Activity was also seen for both rat and mouse liver microsomes
utilization of compound 3165 by mouse liver microsomes (mouse liver microsomes): Activity was also seen for both rat and mouse liver microsomes

light produced with GST A1-1 minus no enzyme, concentrated substrate (GST A1-1): 6,410 RLU
light produced with GST A1-1 minus no enzyme, diluted substrate (GST A1-1): 6,462 RLU
light produced with GST M1-1 minus no enzyme, concentrated substrate (GST M1-1): 315,759 RLU
light produced with GST M1-1 minus no enzyme, diluted substrate (GST M1-1): 213,920 RLU
SMILES: Cc1cc(S(=O)(=O)Oc2ccc3nc(C4=N[C@@H](C(=O)O)CS4)sc3c2)ccc1[N+](=O)[O-] [converted compound 934-37]
